Assay in all cases: growth of human tumour cells (NCI), 48 h
The subject of test [1] is OVCAR-3 ovarian.
The test system of test [2] is IGROV1 ovarian.
The subject of test [3] is OVCAR-5 ovarian.
Test [4] relates to SW-620 colon.
In test [5] the test system is A498 renal.
Test [6] relates to SK-MEL-28 melanoma.
Test [7] deals with SF-268 CNS.
Test [8] relates to CAKI-1 renal.
Test [9] deals with PC-3 prostate.

“And” between values parts separate entries of the source, which are not always exact repeats. Identical values can stand only once.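 Grown in 96-well plates, cells were treated for 48 hours with each compound at five concentrations. Insufficient inhibition: endpoint recorded as highest concentration tested. GI50: concentration for 50% inhibition of growth. TGI: concentration producing complete growth inhibition.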

In the case of `CC1=C(C(=O)Nc2ccc([N+](=O)[O-])cc2)C(c2ccccc2O)C(C(=O)Nc2ccc([N+](=O)[O-])cc2)=C(C)N1`, the TGI was 51.4 µM in [1]; above 100 µM in [2]; 55.8 µM in test [3]; 94.1 µM in test [4]; 66.4 µM in test [5]; 61.5 µM in test [6]. In addition, the figures for the TGI in [7] and in test [8] were 49 µM and 62.1 µM, respectively.
For `CCCCN=C(NC#N)N(Cc1ccccc1)Cc1ccccc1`, the TGI is 64.8 µM in test [1]; 74.4 µM in [2]; 87.5 µM in test [3]; 30.4 µM in test [4]; 63.7 µM in test [5]; 81.2 µM in test [6]. Further, the values for the TGI in test [7] and in [8] were above 100 µM and 66.4 µM, respectively.
Consider `CN(C(=O)C12C3(C(=O)C(C)(C)C)C4C5(C#N)C3C1(C(=O)C(C)(C)C)C5C42C(=O)C(C)(C)C)C(C)(C)C` (centres undefined), for which the TGI in [1], in test [2], in [3], in test [4], in [5] and in test [6] was above 50 µM in each case. Besides, the TGI in test [7] and in test [8] was above 50 µM throughout.
In the case of `O=c1cc(-c2ccccc2)[nH]c2c(Cl)cccc12`, the TGI in [1] was above 100 µM; in test [2] it was above 100 µM; in test [4] it was above 100 µM; in test [5], 91.6 µM; in test [6], above 100 µM; in test [7] it was above 100 µM.
For the molecule `O=C(O)C(C(=O)C(=O)C(C(=O)O)c1ccc(Cl)cc1)c1ccc(Cl)cc1` (centres undefined), the TGI came to 10.2 µM in test [1]; 9.03 µM in [2]; 13.6 µM in test [3]; 13.5 µM in test [4]; 16.6 µM in test [5]; 15.7 µM in [6]. Further, the TGI came out at 11.9 µM in [7] and 13.6 µM in [8].
In the case of `O=[P+](O)c1cc2ccccc2c2ccccc12`, the TGI in [1], in test [2], in test [4], in test [6] and in [7] was above 100 µM each time.
As to `COC(=O)[C@@]1(O)CC(C)C=C1C=O` (some centres undefined), the TGI in test [1], in test [2], in test [3], in test [4], in test [5] and in test [6] was above 100 µM each time. In addition, the TGI in test [7] and in test [8] was above 100 µM throughout.
On to `CCCCCCCCC(O)C#CC(N)=O` (centres undefined), for which the TGI in test [1] worked out at 20.5 µM; in [3] it was 43.9 µM; in test [4], 37.2 µM; in test [5], 31 µM; in test [6], 31.8 µM; in test [8] it was 32.3 µM.
`COc1ccc(OC)c(NCC#N)c1`: the TGI in test [1], in [2], in [4], in [5], in [6] and in test [7] was above 100 µM each time.
For the molecule `O=C1[C@H]2ON(c3ccccc3)C(c3ccccc3F)[C@H]2C(=O)N1c1ccc(Cc2ccc(N3C(=O)[C@@H]4ON(c5ccccc5)C(c5ccccc5F)[C@@H]4C3=O)cc2)cc1` (some centres undefined), the TGI in test [1], in test [2], in [3], in test [4], in test [5] and in test [6] was above 100 µM throughout. In addition, the TGI in [7] and in [8] was above 100 µM each time.
As for `CC(=O)OC(C)(C)/C=C/C(=O)[C@](C)(O)[C@H]1[C@H](O)C[C@@]2(C)[C@@H]3CC=C4[C@@H](C[C@H](O)C(=O)C4(C)C)[C@]3(CO)C(=O)C[C@]12C`, the GI50 in [1] is 0.273 µM; in test [2] it was 0.463 µM; in [3], 0.73 µM; in [4], 0.159 µM; in test [5] it was 0.0791 µM; in [6] it was 0.034 µM. Moreover, the GI50 in [7] was 0.362 µM. For the same molecule, the TGI in test [1] is 0.762 µM; in test [2] it was 0.907 µM and 2.89 µM; in test [3], 41 µM; in test [4], 20 µM; in test [5], 0.431 µM and 0.213 µM; in test [6], 0.697 µM and 0.254 µM. In addition, the TGI was 0.971 µM and 1.29 µM in test [7]; 0.564 µM and 0.66 µM in test [8].
As to `CCOC(=O)[C@H]1CSC[C@@H](C(=O)OC)N1`, the TGI in [1], in test [2], in test [3], in test [4], in test [5] and in test [6] was above 100 µM in each case. Further, the TGI in test [7] and in test [8] was above 100 µM throughout.
Turning to `CC(C)N1CCC2(CC1)NNc1ncccc1-n1cccc12`, the TGI in [1], in [3], in test [4], in [6], in test [7] and in test [8] was above 100 µM throughout.
Turning to `O=c1cc(-c2ccccc2)nc(/C=C(\O)c2ccncc2)n1-c1ccccc1`, the TGI in test [1], in test [2], in [3], in test [4], in test [5] and in test [6] was above 100 µM throughout. Also, the TGI in test [7] and in test [8] was above 100 µM in each case.
`O=C(O)c1ccc([S-])cc1.[Au+].c1ccc(CN2[CH-]N(Cc3ccccc3)C(c3ccccc3)=C2c2ccccc2)cc1`: the GI50 in test [1] was 0.373 µM; in test [2], 0.541 µM; in test [3], 0.918 µM; in [4], 0.418 µM; in [5] it was 0.246 µM; in test [6], 0.43 µM. In addition, the GI50 in test [9] was 0.308 µM. In addition, the TGI in test [1] was found to be 1.28 µM; in [2] it was 2.15 µM; in test [3] it was 2.2 µM; in test [4], 1.93 µM; in test [5] it was 0.954 µM; in test [6] it was 1.71 µM. Besides, in test [9], the TGI came out at 1.44 µM.
`COC1=C2C[C@H](O)C(C)C[C@@]2(OC)OC1=O` (some centres undefined): the TGI in [1], in test [2], in test [4], in test [5], in [6] and in test [7] was above 100 µM throughout. In [8], this molecule returned a TGI above 100 µM.

(Values after PubChem BioAssay (NCI).)
